The subject of assay [1] is MHC-I, PSMB8, PSMB9, and PSMB10. Nature of the assay: Immunoblot of IFNG-induced MHC-I and immunoproteasome protein in MB135 myoblasts treated with inhibitors. It counts as cell-based, human. The following applies: MB135iDUX4 cells, data not shown. (A western blot detects proteins with antibodies after separation by electrophoresis.)
The test system is the same in assay [2]. Described as above. The format is cell-based, human. Conditions: MB135 myoblasts without DUX4 induction, agent then IFNG 16 h; 4EGI-1 at 50 uM. How it is done: To test if mTOR inactivation was sufficient to block MHC-I and immunoproteasome protein levels in the absence of DUX4, parental MB135 myoblasts were treated with mTOR inhibitors everolimus or Torin2. Everolimus is a second-generation rapamycin analog with binding specificity for mTORC1. […] To further validate the role of 4EBP1 in blocking MHC-I and immunoproteasome protein expression, MB135 cells were treated with 4EGI-1, a small molecule that pharmacologically mimics 4EBP function and inhibits eIF4E.
(§1) Protein samples were harvested in RIPA buffer [150 mM NaCl, 1% NP-40, 0.5% Na-deocycholate, 1% SDS, 25 mM Tris-HCl pH7.4] supplemented with protease and phosphatase inhibitor tablets (Pierce), followed by sonication in Diagenode Bioruptor. Lysate was cleared by centrifugation at 16000×g and quantified using a Pierce BCA assay (Thermo Fisher Scientific). Samples were run on NuPAGE precast polyacrylamide gels (Invitrogen) and transferred to PVDF membrane. Membranes were blocked in PBS containing 0.1% Tween-20 and 5% non-fat dry milk before overnight incubation at 4° C. with primary antibodies (see resource table for a list of antibodies used in this study). Membranes were incubated with horseradish peroxidase-conjugated secondary antibodies for 1 hour at room temperature and SuperSignal chemiluminescent substrate (Thermo Scientific) was used for detection on film with a Mini-medical 90 processor. Membranes were stripped with Restore Western Blot Stripping Buffer (Pierce).

For assay [3], the system named is HLA-E. Nature of the assay: Immunoblot of non-canonical MHC class I HLA-E. The format is cell-based, human. Conditions: MB135iDUX4 cells. How it is done: as §1
Assay [4] relates to interferon-stimulated genes IFIH1, ISG20, CXCL9, and CD74. The experiment in a line: IFNG induction of interferon-stimulated genes, RT-qPCR in MB135 cells with doxycycline-inducible transgenes. It counts as cell-based, human. Conditions: MB135 cells, doxycycline-induced transgene, continuous protocol, IFNG 16 h. As to the method:
(§2) All myoblast experiments were conducted in immortalized MB135 or MB200 myoblast cell lines (isolated from a control or FSHD2 subject, respectively cultured in Ham's F-10 Nutrient Mix (Gibco) supplemented with 15% fetal bovine serum (Hyclone), 100 U/100 μg/ml penicillin/streptomycin (Gibco), 1 μM dexamethasone (Sigma), and 10 ng/ml recombinant human basic fibroblast growth factor (PeproTech). To differentiate the myoblasts to myotubes, media was changed to DMEM supplemented with 10 μg/ml insulin (Sigma) and 10 μg/ml transferrin (Sigma). Cell lines containing doxycycline-inducible transgenes were additionally cultured with 2 μg/mL puromycin (Sigma). Transgenes were induced with 1 μg/mL of doxycycline (Sigma) for 4 hours prior to other treatments for a total of 20 hrs. The Kitra-SRS cells (RRID:CVCL_YI69) were provided by Dr. H. Otani and Osaka University (Nakai et al., 2019) and were cultured in DMEM supplemented with 10% fetal bovine serum (Hyclone) and 100 U/100 μg/ml penicillin/streptomycin (Gibco). Biological replicates consisted of independent but parallel experiments, such as simultaneously stimulating three cell culture plates with IFNγ. Technical replicates consisted of repeat measurements of the same biological sample, such as loading the same biological sample in triplicate for analysis by RT-qPCR.
(§3) Myoblasts were transfected with either (final concentrations) 10 μM 2′,3′-cGAMP (Sigma Aldrich), 2 μg/mL poly(I:C) (Invitrogen), or 1 μg/mL 3′ppp-dsRNA RIG-I ligand (Dan Stetson Lab, UW) using Lipofectamine 2000 according to manufacturer's protocol, or were stimulated with 1000U IFNβ (PeproTech) or 200 ng/ml IFNγ (R+D Systems) by addition directly to cell culture medium. After 16 hours of immune stimulation, RNA was collected from cells using the NucleoSpin RNA Kit (Macherey-Nagel) according to manufacturer's instructions. RNA samples were quantified by nanodrop and 1 μg of RNA per sample was treated with DNase I Amplification Grade (Thermo Fisher), and then synthesized into cDNA using the Superscript IV First-Strand Synthesis System, including oligo dT primers (Invitrogen). qPCR was run in 384-well plates on an Applied Biosystems QuantStudio 6 Flex Real-Time PCR System (ABI) and analyzed in Microsoft Excel.

Assay [5] has as its system H3.X/Y. Nature of the assay: Immunoblot of DUX4 target H3.X/Y proteins. It counts as cell-based, human. Conditions: MB135 cells, continuous or pulsed protocol. As to the method: as §1
Assay [6] concerns MHC class I proteins (HLA-A/B/C). Nature of the assay: Immunoblot of IFNG-induced MHC class I protein, continuous or pulsed protocol, MB135 myoblasts. It counts as cell-based, human. Conditions: MB135 cells; for suppression of IFNG-induced MHC class I protein, pulsed protocol: 4 h doxycycline pulse, IFNG added later for 16 h; for suppression of IFNG-induced MHC class I protein, continuous protocol: doxycycline 20 h, IFNG last 16 h. How it is done:
(§4) In the “continuous” protocol (similar to the experiments shown in the prior FIGS. 1, 2, 4, 5, and 6), doxycycline is added to induce DUX4 expression at time 0 and four hours later IFNG is added for an additional 16 hours, resulting in 20 hours of continuous DUX4 induction with the last 16 hrs exposed to IFNG.
(§5) In the “pulsed” protocol, doxycycline is added at time 0 to induce DUX4 expression, but after four hours the media is changed to remove the doxycycline, resulting in a pulse of DUX4 mRNA and protein sufficient to induce DUX4 target gene expression (see Resnick et al., Cell Rep. 2019 Nov. 12; 29(7):1812-1820.e5). IFNG is added at 28 hours for a period of 16 hours prior to harvesting the cells. […] This difference is not likely to be due to different amounts of the DUX4 and mutant DUX4 proteins because at the time of harvest both DUX4 and the F67A mutant DUX4 protein levels have declined to similarly low amounts relative to the continuous protocol, but could be due to the activation of DUX4 target genes by the full-length DUX4 since the H3.X/Y proteins show persistent expression in the pulsed protocol.
as §1

The test system of assay [7] is ZSCAN4. The experiment in a line: Activation of DUX4 target gene ZSCAN4, RT-qPCR. The format is cell-based, human. The following applies: MB135 cells ± doxycycline. As to the method:
as §2, §3
(In general: Quantitative PCR measures a nucleic acid by following its amplification.)

For assay [8], the system named is immunoproteasome subunits PSMB8, PSMB9, and PSMB10. The experiment in a line: Immunoblot of IFNG-induced immunoproteasome subunits. The format is cell-based, human. The following applies: MB135 cells; for suppression of IFNG-induced immunoproteasome subunit protein, pulsed protocol: 4 h doxycycline pulse, later IFNG 16 h; for suppression of IFNG-induced immunoproteasome subunit protein, continuous protocol: doxycycline 20 h, IFNG last 16 h. How it is done: as §4, §5, §1

In assay [9] the test system is de novo protein synthesis. Nature of the assay: [35S]-methionine/cysteine metabolic labeling of nascent protein synthesis. It counts as cell-based. The following applies: human myoblasts, 20-92 h after 4 h doxycycline pulse. How it is done: Cells were treated with and without a 4-hour pulse of doxycycline. Eight hours prior to harvest, cells were incubated in DMEM depleted for methionine and cysteine (Gibco) supplemented with 90 microcurie 35S-methionine/cysteine (Perkin Elmer) and 50 ng/ml […] (R&D Systems). Protein samples were harvested in RIPA buffer [150 mM NaCl, 1% NP-40, 0.5% Na-deocycholate, 1% SDS, 25 mM Tris-HCl pH7.4] supplemented with protease and phosphatase inhibitor tablets (Pierce), followed by sonication in Diagenode Bioruptor. Lysate was cleared by centrifugation at 16000×g and quantified using a Pierce BCA assay (Thermo Scientific). Samples were run on NuPAGE precast polyacrylamide gels (Invitrogen). Gels were stained with InstantBlue Coomassie (Abcam) following manufacturer protocol, placed on whatman paper, wrapped in plastic wrap, and dried. Gels were exposed to phosphor screen, imaged on Typhoon Trio imager, and analyzed with ImageQuant.

Assay [10] concerns ISG induction by IFNG. The experiment in a line: RNA-seq of IFNG-induced genes in MB135 cells. It counts as cell-based, human. The following applies: genes induced by IFNG (log 2 fold-change >3), doxycycline + IFNG. How it is done:
RNA was extracted as described above from untreated, doxycycline-treated, IFNγ-treated, or doxycycline- and IFNγ-treated samples. RNA was submitted to the Fred Hutchinson Cancer Research Center Genomics Core for library preparation using the TruSeq3 Stranded mRNA kit (Illumina) followed by size and quality analysis by Tapestation (Agilent). Libraries were sequenced on a NextSeq P2-100 (Illumina).
Sequencing analysis was performed using R version 4.0.3 (R Core Team, 2020). Sequencing reads were trimmed using Trimmomatic (version 0.39) (Bolger et al., 2014, Trimmomatic: a flexible trimmer for Illumina sequence data. Bioinformatics 30, 2114-2120), and aligned to the Homo sapiens GRCh38 reference genome with the Rsubread aligner (Liao et al., 2019, The R package Rsubread is easier, faster, cheaper and better for alignment and quantification of RNA sequencing reads. Nucleic Acids Res 47, e47). Gene counts were analyzed using featureCounts (v2.0.1) (Liao et al., 2019, supra) and the Gencode v35 annotation file. Normalization and differential expression analysis were done with DESeq2 (v1.26.0) (Love et al., 2014, Moderated estimation of fold change and dispersion for RNA-seq data with DESeq2. Genome Biol 15, 550).

“Also recorded” adds a separate entry of the source. Where a SMILES comes first, the peptide text is derived from it. The star is where a group is joined. Cbz = O=C(OCc1ccccc1)*

For the molecule `CO/C1=C\C(C)=C\[C@@H](C)[C@@H](O)[C@@H](C)C/C(C)=C/C=C/[C@H](OC)[C@@H]([C@@H](C)[C@@H](O)[C@H](C)[C@@]2(O)C[C@@H](O)[C@H](C)[C@@H](C(C)C)O2)OC1=O` [Bafilomycin], in assay [1], the “rescue of post-transcriptional suppression after a pulse of DUX4” value is on record as “did not rescue post-transcriptional suppression”.

Turning to `CC(C)C[C@@H](C=O)NC(=O)[C@H](CC(C)C)NC(=O)[C@H](CC(C)C)NC(=O)OCc1ccccc1` [MG132] (Cbz-Leu-Leu-Leu-aldehyde), the “effect on IFNG-induced MHC-I and immunoproteasome protein in the absence of DUX4” value in [2] is “MHC class I induction, but not HLA-E is blocked”. Also, in assay [1], the “rescue of post-transcriptional suppression after a pulse of DUX4” value is listed as “did not rescue post-transcriptional suppression”. Further, the “effect on IFNG-induced HLA-E protein” value in assay [3] was “stable expression of HLA-E protein”.

With “iDUX4-F67A: DUX4 with phenylalanine to alanine mutation in first homeodomain preventing DNA binding, SEQ ID NOS: 6-7”, the “suppression of IFNG induction of ISGs (IFIH1, ISG20, CXCL9, CD74)” value is “sufficient to block IFNG-induced ISG expression; also recorded: still suppressed ISG induction by IFNG” in assay [4] and “fully suppresses the ISG response to IFNG” in [4] (listed as DUX4-F67A). For the same molecule, the “induction of DUX4 target H3.X/Y proteins” value in [5] is given as “does not induce expression of the DUX4-regulated H3.X/Y”. Also, the “suppression of IFNG-induced MHC class I protein, pulsed protocol” value in [6] (listed as DUX4(F67A)) is on record as “protein levels were completely rescued”; in assay [6] (listed as DUX4-F67A), “does not suppress MHC class I in the pulse protocol”; in assay [6] (listed as F67A mutant), “does not suppress MHC class I in the pulsed protocol”. The “suppression of IFNG-induced MHC class I protein, continuous protocol” value is “suppressed IFNG-induced MHC-I and the immunoproteasome expression” in [6] (listed as DUX4(F67A)); “suppress the IFNG induction of MHC class I expression; also recorded: inhibits MHC class I proteins in only the continuous protocol” in [6] (listed as DUX4-F67A). For the same molecule, the figures for the “transcriptional activation of DUX4 target gene ZSCAN4” value in assay [7] and in assay [7] (listed as DUX4-F67A) were “did not activate ZSCAN4” and “prevents the transcriptional activation of DUX4 regulated genes”, respectively. In addition, the “suppression of IFNG-induced immunoproteasome subunit protein, pulsed protocol” value is on record as “protein levels were completely rescued; also recorded: neither suppression of PSMB9 or altered 4EBP1 phosphorylation was observed” in [8] (listed as DUX4(F67A)) and “does not inhibit at all in the pulsed protocol” in assay [8] (listed as DUX4 F67A). Moreover, the “suppression of IFNG-induced immunoproteasome subunit protein, continuous protocol” value in assay [8] (listed as DUX4(F67A)) was “suppressed IFNG-induced MHC-I and the immunoproteasome expression”; in [8] (listed as DUX4 F67A), “only partially inhibits the IFNG induction of PSMB9 and PSMB10 in the continuous protocol”. Further, the “nascent protein synthesis by 35S labeling” value in assay [9] is “did not suppress protein translation; also recorded: no significant change”. The “IFNG-induced genes whose induction was suppressed more than 2-fold (percent)” value in assay [10] was 70%. Also, in [10], the “IFNG-induced genes whose induction was suppressed more than 4-fold (percent)” value is 41%.

The values are drawn from patent US20250339531A1, “DUX4 POLYPEPTIDES AND NUCLEIC ACIDS FOR TREATING INFLAMMATORY AND AUTOIMMUNE CONDITIONS” (Fred Hutchinson Cancer Center, priority 2021, published 2025).
